In PubChem BioAssay (NCI):
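Values below derive from 48-hour exposures of cells grown in 96-well plates, with endpoints linearly interpolated between the two concentrations bracketing the appropriate inhibition level. At the GI50, growth is halved. Definition used: TGI = concentration required for complete inhibition of growth.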

Columns and labels:
Experiment in all cases: growth of human tumour cells (NCI), 48 h
[1] = system: SK-MEL-5 melanoma
[2] = system: NCI-H522 lung
[3] = system: RXF 393 renal
[4] = system: A498 renal
[5] = system: NCI-H226 lung
[6] = system: ACHN renal
[7] = system: BT-549 breast
[8] = system: UACC-257 melanoma
[9] = system: HL-60(TB) leukemia
[10] = system: SN12C renal

| SMILES | TGI [1] | TGI [2] | TGI [3] | TGI [4] | TGI [5] | TGI [6] | TGI [7] | TGI [8] | TGI [9] | TGI [10] | GI50 [1] | GI50 [2] | GI50 [3] | GI50 [4] | GI50 [5] | GI50 [6] | GI50 [7] | GI50 [8] | GI50 [9] | GI50 [10] |
| --- | --- | --- | --- | --- | --- | --- | --- | --- | --- | --- | --- | --- | --- | --- | --- | --- | --- | --- | --- | --- |
| CC[C@@H]1CN(C)[C@H]2Cc3c([nH]c4ccccc34)C(=O)C[C@H]1C2C(=O)OC (stereo not given in full) | > 100 µM | > 100 µM | > 100 µM | > 100 µM | > 100 µM | > 100 µM | > 100 µM | > 100 µM | > 100 µM | > 100 µM |  |  |  |  |  |  |  |  |  |  |
| CC(C)(C)OC(=O)N1CCc2c(sc3ncnc(N/N=C/c4cccc5ccccc45)c23)C1 | 11.1 µM | 7.21 µM | 7.41 µM | 9.79 µM | 34.7 µM | 78.5 µM | 72.9 µM | 69.6 µM | 13.4 µM | 32.9 µM | 3.36 µM | 2.26 µM | 2.54 µM | 2.3 µM | 5.29 µM | 3.24 µM | 8.45 µM | 5.8 µM | 2.81 µM | 5.04 µM |
| Oc1ccc(CN2CCC(N3CCCCC3)CC2)c2cccnc12 | 75.9 µM | 43.9 µM | > 100 µM | > 100 µM | 82.2 µM | > 100 µM | > 100 µM | 99.3 µM | 46.7 µM | > 100 µM | 15.8 µM | 3.43 µM | 11.7 µM | > 100 µM | 29 µM | 5.95 µM | 11.5 µM | 27.6 µM | 6.86 µM | 8.18 µM |
| CS(=O)(=O)c1ccc([C@H]2O[C@@H](CO)C[C@]2(O)c2ccc(S(C)(=O)=O)cc2)cc1 | > 100 µM | > 100 µM | > 100 µM | > 100 µM | > 100 µM | > 100 µM | > 100 µM | > 100 µM | > 100 µM | > 100 µM | > 100 µM | > 100 µM | > 100 µM | > 100 µM | > 100 µM | > 100 µM | > 100 µM | > 100 µM | > 100 µM | > 100 µM |
| CCOc1cc2c(Cl)ncnc2c(OCC)c1OCC | 12.1 µM | 23.5 µM | 22.1 µM | 19.1 µM | 33.3 µM | 27.1 µM | 14.5 µM | 22 µM | 15.5 µM | 26.2 µM | 3.8 µM | 9.67 µM | 7.74 µM | 6.48 µM | 12.7 µM | 14.1 µM | 4.82 µM | 6.95 µM | 2.35 µM | 12 µM |
| CCN(CC)c1ccc(/C=C/c2ccc3cc(C)ccc3[n+]2CC)cc1 | 0.261 µM | 2.55 µM | 3.41 µM | 1.78 µM | 9.85 µM | 5.67 µM | 1.39 µM | 1.28 µM | 0.429 µM | 1.2 µM | 0.0493 µM | 0.0835 µM | 0.216 µM | 0.149 µM | 0.152 µM | 0.336 µM | 0.0314 µM | 0.116 µM | 0.0297 µM | 0.124 µM |
| FC(F)(F)c1cccc(Nc2nccc(-c3cnn4nc(-c5ccccc5)ccc34)n2)c1 | > 25 µM | > 18.5 µM | 10 µM | > 25 µM | > 25 µM | > 18 µM | > 25 µM | > 25 µM | > 25 µM | > 25 µM | 14.7 µM | 6.88 µM | 4.63 µM | > 14 µM | > 25 µM | 6.71 µM | 18.8 µM | 15.8 µM | > 25 µM | > 13.5 µM |
| COC(=O)[C@]12CC[C@@H](C)[C@H](C)[C@@H]1C1=CC[C@@H]3[C@@]4(C)C/C(=N\O)[C@H](O)[C@@]5(C)COC(=C45)C[C@@]3(C)[C@]1(C)CC2 | 25.8 µM | 30.1 µM | 7.36 µM | 21.9 µM | 33.5 µM | 7.41 µM | 34.8 µM | 34.5 µM | 13.2 µM | 21.2 µM | 13.1 µM | 14.1 µM | 2.41 µM | 9.94 µM | 14.8 µM | 2.58 µM | 15.7 µM | 18.6 µM | 3.64 µM | 5.79 µM |
| O=C1Nc2c(C(F)(F)F)cccc2[C@]1(c1ccc(O)cc1)c1ccc(OC(F)(F)F)cc1 | 24.6 µM | 28.5 µM | 15.5 µM | 30 µM | 32.4 µM | 21.5 µM | 8.43 µM | 24.9 µM | 32.5 µM | 12.3 µM | 11.9 µM | 12.9 µM | 3.29 µM | 14.7 µM | 11.6 µM | 9.82 µM | 2.18 µM | 11.8 µM | 13.7 µM | 2.83 µM |
| Nc1nc(Cl)c2ncn(Cc3ccc(C45CC6CC(CC(C6)C4)C5)c(O)c3)c2n1 | 11 µM | 23.8 µM | 6.56 µM | 24.4 µM | 42.9 µM | 13.9 µM | 25.2 µM | 4.86 µM | 11.7 µM | 13.4 µM | 0.558 µM | 6.01 µM | 1.87 µM | 8.15 µM | 12 µM | 3.35 µM | 6.82 µM | 0.578 µM | 1.22 µM | 2.95 µM |
